As usually defined, the EC50 is the concentration at which the effect is half-maximal. Read a high EC50 as a need for much substance. As usually defined, the IC50 is the midpoint of a concentration-inhibition curve. Read a low IC50 as greater potency in that assay. What is called Ki is the equilibrium dissociation constant of an inhibitor or competing ligand from its target. A lower Ki goes with higher affinity. The half-life is the time in which the quantity being followed falls by half. Lower therefore signals fast loss. In general, AUC(0-inf) refers to total exposure, with the tail of the curve extrapolated. Read a low AUC(0-inf) as less exposure. For orientation: bioavailability means dose-corrected exposure relative to a reference, in per cent. Lower therefore signals little systemic uptake.

In data set [1] the target is T1, Androgen receptor (Homo sapiens, UniProt P10275).
T1 sequence (P10275 whole entry): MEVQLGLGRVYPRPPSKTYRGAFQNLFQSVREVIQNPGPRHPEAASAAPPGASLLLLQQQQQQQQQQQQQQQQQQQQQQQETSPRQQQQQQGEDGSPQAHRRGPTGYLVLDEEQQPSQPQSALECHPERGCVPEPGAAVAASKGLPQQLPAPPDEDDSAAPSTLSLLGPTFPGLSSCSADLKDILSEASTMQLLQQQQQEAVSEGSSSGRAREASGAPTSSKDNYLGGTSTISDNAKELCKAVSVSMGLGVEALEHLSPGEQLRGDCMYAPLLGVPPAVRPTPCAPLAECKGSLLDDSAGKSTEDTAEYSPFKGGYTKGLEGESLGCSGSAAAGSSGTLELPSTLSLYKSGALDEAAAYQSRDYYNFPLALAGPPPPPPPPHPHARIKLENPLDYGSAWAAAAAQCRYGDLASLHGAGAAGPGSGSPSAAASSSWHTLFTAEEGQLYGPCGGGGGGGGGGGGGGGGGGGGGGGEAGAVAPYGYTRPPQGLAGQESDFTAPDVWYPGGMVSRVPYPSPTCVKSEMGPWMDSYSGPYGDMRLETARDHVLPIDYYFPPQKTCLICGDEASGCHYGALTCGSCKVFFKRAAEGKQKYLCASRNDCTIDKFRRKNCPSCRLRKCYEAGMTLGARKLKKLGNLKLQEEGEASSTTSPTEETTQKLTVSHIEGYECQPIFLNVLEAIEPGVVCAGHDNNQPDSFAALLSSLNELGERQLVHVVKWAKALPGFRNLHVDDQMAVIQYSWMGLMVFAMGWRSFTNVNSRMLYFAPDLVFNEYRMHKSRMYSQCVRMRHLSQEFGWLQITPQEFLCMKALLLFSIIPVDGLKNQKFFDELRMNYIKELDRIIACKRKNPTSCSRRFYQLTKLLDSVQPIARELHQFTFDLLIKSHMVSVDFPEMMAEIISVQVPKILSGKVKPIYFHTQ
Description: Agonist activity at human androgen receptor by luciferase reporter gene assay

Data set [2] concerns the target T1, Androgen receptor. This is another data set of the same source.
Description: Antagonist activity at human androgen receptor by luciferase reporter gene assay
In data set [3] the target is T1, Androgen receptor. The source holds these as a separate data set.
Description: Binding affinity to human AR
Data set [4] deals with T2, Mineralocorticoid receptor (Homo sapiens, UniProt P08235).
T2 sequence (P08235 whole entry): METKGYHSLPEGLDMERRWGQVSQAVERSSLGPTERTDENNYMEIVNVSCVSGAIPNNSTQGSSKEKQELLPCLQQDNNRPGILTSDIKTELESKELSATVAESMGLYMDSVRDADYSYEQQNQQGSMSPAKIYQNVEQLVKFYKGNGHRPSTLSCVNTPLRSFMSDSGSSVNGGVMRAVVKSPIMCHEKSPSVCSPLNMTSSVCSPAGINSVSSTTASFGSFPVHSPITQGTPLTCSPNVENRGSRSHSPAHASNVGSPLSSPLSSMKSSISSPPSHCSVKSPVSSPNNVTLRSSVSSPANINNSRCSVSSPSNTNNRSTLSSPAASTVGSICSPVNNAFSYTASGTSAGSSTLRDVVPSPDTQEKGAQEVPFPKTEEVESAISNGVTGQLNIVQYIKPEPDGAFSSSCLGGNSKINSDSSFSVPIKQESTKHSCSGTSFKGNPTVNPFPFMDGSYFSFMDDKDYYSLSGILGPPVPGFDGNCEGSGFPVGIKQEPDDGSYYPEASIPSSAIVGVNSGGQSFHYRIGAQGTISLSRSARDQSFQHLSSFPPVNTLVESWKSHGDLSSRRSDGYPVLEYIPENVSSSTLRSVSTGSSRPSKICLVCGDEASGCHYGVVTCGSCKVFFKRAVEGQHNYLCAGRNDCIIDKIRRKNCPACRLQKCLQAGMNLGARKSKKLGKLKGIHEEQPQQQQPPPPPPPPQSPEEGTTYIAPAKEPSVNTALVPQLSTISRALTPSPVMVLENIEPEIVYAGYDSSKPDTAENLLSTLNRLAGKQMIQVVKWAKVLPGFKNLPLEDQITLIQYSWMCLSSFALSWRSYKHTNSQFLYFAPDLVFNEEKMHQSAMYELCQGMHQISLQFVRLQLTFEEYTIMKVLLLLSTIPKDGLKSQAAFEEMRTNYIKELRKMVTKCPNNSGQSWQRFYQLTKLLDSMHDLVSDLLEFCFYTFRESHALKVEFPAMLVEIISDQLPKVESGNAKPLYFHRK
As to the kind of experiment: Binding affinity to MR.

The target in data set [5] is T3, Estrogen receptor (Homo sapiens, UniProt P03372).
T3 sequence (P03372 whole entry): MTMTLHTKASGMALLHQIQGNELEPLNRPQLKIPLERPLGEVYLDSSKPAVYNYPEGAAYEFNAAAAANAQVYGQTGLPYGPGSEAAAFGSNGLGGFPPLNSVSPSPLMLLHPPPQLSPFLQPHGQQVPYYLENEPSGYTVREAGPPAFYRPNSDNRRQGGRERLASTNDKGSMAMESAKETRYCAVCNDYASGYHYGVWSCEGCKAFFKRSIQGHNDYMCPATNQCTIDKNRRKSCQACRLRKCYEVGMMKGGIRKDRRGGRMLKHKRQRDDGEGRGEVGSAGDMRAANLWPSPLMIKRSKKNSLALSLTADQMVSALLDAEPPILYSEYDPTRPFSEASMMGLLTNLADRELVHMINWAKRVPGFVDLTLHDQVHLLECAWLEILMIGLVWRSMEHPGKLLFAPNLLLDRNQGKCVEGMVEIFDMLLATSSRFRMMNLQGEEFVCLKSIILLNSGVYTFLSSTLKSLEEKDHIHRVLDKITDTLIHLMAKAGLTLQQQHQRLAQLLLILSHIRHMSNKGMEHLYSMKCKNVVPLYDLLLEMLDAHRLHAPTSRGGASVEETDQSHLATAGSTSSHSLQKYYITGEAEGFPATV
Nature of the data set: Binding affinity to ERalpha.

The target of data set [6] is T4, Progesterone receptor (Homo sapiens, UniProt P06401).
T4 sequence (P06401 whole entry): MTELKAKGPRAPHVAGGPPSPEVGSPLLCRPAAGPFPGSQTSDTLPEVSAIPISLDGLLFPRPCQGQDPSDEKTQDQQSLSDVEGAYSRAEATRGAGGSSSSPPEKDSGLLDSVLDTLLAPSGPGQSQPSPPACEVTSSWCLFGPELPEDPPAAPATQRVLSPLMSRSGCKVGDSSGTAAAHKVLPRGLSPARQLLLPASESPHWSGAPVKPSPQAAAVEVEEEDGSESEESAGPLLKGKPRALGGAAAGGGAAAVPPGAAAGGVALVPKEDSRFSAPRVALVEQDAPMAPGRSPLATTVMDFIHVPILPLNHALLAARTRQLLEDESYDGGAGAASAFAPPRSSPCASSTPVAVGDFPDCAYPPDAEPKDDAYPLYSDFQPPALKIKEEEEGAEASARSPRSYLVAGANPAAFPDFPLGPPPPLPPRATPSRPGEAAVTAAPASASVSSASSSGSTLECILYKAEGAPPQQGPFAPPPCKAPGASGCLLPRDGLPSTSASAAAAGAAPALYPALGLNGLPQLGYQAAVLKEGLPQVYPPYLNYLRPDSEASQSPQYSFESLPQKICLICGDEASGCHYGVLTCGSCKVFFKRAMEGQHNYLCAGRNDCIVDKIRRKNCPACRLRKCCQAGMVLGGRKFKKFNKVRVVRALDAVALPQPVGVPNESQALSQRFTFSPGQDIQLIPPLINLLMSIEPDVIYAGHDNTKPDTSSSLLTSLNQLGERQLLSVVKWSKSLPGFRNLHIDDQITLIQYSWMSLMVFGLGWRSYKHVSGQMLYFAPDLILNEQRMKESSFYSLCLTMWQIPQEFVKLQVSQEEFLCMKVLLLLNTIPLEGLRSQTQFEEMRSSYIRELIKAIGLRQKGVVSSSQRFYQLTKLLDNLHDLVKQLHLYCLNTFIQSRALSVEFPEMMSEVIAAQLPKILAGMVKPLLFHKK
Nature of the data set: Binding affinity to PR.

The target in data set [7] is T5, Glucocorticoid receptor (Homo sapiens, UniProt P04150).
T5 sequence (P04150 whole entry): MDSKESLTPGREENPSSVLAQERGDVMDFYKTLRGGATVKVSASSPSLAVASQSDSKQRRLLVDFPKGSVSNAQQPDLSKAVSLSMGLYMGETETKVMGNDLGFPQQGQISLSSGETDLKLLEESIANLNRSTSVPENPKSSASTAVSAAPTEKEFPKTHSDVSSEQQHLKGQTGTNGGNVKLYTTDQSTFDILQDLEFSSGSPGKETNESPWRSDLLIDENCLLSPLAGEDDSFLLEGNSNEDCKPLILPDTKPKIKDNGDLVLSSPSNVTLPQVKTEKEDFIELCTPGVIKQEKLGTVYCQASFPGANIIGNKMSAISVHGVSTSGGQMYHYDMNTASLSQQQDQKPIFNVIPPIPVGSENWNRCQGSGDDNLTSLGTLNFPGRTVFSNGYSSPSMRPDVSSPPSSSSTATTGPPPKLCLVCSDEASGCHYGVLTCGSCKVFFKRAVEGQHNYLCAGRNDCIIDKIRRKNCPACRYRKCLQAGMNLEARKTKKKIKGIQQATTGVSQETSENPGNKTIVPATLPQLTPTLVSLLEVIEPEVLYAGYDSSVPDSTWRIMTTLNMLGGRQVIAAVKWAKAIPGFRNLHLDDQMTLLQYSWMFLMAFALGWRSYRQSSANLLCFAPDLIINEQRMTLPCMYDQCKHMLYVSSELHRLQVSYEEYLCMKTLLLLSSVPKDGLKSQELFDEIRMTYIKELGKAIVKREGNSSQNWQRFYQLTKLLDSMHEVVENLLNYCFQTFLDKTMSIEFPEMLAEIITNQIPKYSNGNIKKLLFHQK
As to the kind of experiment: Binding affinity to GR.

A short description of data set [8]: Half life in Sprague-Dawley rat at 2.5 mg/kg, iv. Format: ADME, organism-based. More on the design: dose 2.5 mg/kg, route intravenous. Particulars: in vivo.
Data set [9] in a line: AUC (0 to infinity) in Sprague-Dawley rat at 14.6 mg/kg, po. More on the design: time infinity, dose 14.6 mg/kg, route oral. As to conditions: plasma. In kind it is ADME, organism-based.
A short description of data set [10]: Bioavailability in Sprague-Dawley rat at 14.6 mg/kg, po. Format: ADME, organism-based. As to conditions: in vivo.
Data set [11] in a line: Anabolic effect as increased levator ani muscle weight in orchidectomized rat model at doses > 1 mg/kg. Format: functional, organism-based. More on the design: dose 1 mg/kg.
The nature of data set [12]: AUC (0 to infinity) in Sprague-Dawley rat at 10 mg/kg, po. In kind it is ADME, organism-based. More on the design: time infinity, dose 10 mg/kg, route oral. Particulars: plasma.
The nature of data set [13]: Bioavailability in Sprague-Dawley rat at 10 mg/kg, po. Particulars: in vivo. Format: ADME, organism-based.

With `C[C@@H]1CC[C@H](CO)N1c1ccc2[nH]c(=O)cc(C(F)(F)F)c2c1`, the concentration giving a half-maximal response (EC50) in data set [1] came to 21 nM. Besides, in data set [2], the 50% inhibitory concentration (IC50) was greater than 10 µM. The compound further returned a Ki in [3] of 70 nM.
For `C[C@@H]1CC[C@H](C)N1c1ccc2[nH]c(=O)cc(C(F)(F)F)c2c1` the same measures were 2.6 nM, greater than 10 µM and 19 nM.
The corresponding values for `C[C@@H]1CC[C@H](CCl)N1c1ccc2[nH]c(=O)cc(C(F)(F)F)c2c1` are 12 nM, greater than 10 µM and 10 nM.
Turning to `CC1CCCN1c1ccc2[nH]c(=O)cc(C(F)(F)F)c2c1` (racemic), the half-inhibitory concentration (IC50) in data set [2] is greater than 10 µM. In addition, in data set [3], the inhibition constant Ki was determined as 72 nM.
With `C[C@@H]1CC[C@H]([C@@H](O)C(F)(F)F)N1c1ccc2[nH]c(=O)cc(C(F)(F)F)c2c1` [LGD-2941], the inhibition constant Ki was greater than 10 µM in data set [4]; greater than 10 µM in data set [5]; 2500 nM in [6]; 8.3 µM in data set [7]; 1.5 nM in data set [3]. In addition, the half-life in data set [8] is 162 min. This compound came in with a total exposure AUC(0-inf) in data set [9] of 11800 ng·h/mL. The bioavailability in data set [10] amounted to 100%. Also, the Anabolic activity result in data set [11] is on record as “Anabolic”. The compound also gave an EC50 in [1] of 7.1 nM. In addition, the IC50 in data set [2] was greater than 10 µM.
The compound `C[C@@H]1CC[C@@H](C)N1c1ccc2[nH]c(=O)cc(C(F)(F)F)c2c1` (racemic) registered an EC50 in data set [1] of 48 nM. This compound registered an IC50 in data set [2] greater than 10 µM. Also, in data set [3], the Ki stood at 43 nM.
Turning to `O=c1cc(C(F)(F)F)c2cc(N3CCCC3)ccc2[nH]1`, in [1], the EC50 is greater than 10000 nM. The same compound had an IC50 in [2] of 0.025 µM. The Ki in data set [3] worked out at 1700 nM.
In data set [8], `O=c1cc(C(F)(F)F)c2cc(N(CC(F)(F)F)CC(F)(F)F)ccc2[nH]1` showed a half-life of 102 min. In addition, the area under the curve AUC(0-inf) in data set [12] was 3150 ng·h/mL. Also, in data set [13], the bioavailability turned out to be 43%.
Compound `C[C@@H]1CC[C@H]([C@H](O)C(F)(F)F)N1c1ccc2[nH]c(=O)cc(C(F)(F)F)c2c1` yielded a concentration for a half-maximal effect (EC50) in [1] of 8.4 nM. The same compound returned a half-inhibitory concentration (IC50) in [2] greater than 10 µM. The inhibition constant (Ki) in [3] was determined as 7.6 nM.

The values are drawn from ChEMBL document CHEMBL1148826, “Substituted 6-(1-pyrrolidine)quinolin-2(1H)-ones as novel selective androgen receptor modulators” (J Med Chem, 2007).
